# Results as given in patent US8304416B2, “Chromenone derivatives” (Merck Patent GmbH, priority 2003, dated 2012).
# Assays:
# Type in all cases: biochemical
# PKB = PKB (Homo sapiens, UniProt P31749); experiment: Inhibition of PKB
# RAF = experiment: Inhibition of RAF
# Tie2 = Tie2 (Homo sapiens, UniProt Q02763); experiment: Inhibition of Tie2
# Sequence of Tie2 (Q02763 23-1124, species assumed): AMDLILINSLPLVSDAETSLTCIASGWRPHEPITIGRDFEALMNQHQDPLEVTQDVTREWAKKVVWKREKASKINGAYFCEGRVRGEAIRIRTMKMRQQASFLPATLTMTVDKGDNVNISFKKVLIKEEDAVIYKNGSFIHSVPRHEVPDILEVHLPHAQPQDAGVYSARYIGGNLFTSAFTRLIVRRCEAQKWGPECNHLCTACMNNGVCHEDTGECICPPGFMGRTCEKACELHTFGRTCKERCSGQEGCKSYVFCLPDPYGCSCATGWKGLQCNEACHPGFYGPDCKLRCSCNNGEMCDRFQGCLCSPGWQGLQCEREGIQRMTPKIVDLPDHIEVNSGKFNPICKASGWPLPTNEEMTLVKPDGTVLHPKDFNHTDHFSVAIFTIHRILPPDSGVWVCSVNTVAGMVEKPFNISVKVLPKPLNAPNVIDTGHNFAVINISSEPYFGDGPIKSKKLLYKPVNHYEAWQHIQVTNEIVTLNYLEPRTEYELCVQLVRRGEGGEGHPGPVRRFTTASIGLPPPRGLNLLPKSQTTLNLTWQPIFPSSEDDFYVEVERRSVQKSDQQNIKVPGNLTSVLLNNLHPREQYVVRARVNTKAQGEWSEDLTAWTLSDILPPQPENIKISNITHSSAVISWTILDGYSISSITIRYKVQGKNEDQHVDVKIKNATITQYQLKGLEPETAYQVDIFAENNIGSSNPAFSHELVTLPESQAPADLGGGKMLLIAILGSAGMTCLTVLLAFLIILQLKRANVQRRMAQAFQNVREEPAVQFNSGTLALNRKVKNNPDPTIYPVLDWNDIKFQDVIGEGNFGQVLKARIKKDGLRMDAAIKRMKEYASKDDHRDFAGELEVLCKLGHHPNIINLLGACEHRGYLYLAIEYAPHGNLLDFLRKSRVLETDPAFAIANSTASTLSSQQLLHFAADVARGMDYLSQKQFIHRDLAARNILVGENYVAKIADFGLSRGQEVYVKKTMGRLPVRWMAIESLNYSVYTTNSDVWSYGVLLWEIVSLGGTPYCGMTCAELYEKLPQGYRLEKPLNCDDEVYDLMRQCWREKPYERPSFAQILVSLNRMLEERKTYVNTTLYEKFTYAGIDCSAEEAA
# Sequence of PKB (P31749 whole entry, species assumed): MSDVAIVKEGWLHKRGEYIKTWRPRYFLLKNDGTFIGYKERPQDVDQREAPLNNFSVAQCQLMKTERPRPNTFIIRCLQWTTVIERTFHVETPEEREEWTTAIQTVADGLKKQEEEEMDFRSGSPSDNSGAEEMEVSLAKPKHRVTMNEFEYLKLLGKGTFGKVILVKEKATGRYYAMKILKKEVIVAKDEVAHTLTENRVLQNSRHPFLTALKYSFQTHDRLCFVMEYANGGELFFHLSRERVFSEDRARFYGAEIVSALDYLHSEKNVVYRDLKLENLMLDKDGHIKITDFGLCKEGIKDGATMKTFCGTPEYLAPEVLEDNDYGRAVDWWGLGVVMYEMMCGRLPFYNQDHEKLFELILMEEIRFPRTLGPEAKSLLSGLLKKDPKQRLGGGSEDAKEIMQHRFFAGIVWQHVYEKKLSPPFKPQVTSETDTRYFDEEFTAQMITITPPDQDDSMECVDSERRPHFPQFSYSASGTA
SMILES,IC50 (PKB) [µM],IC50 (RAF) [µM],IC50 (Tie2) [µM]
Cn1ccnc1C(=O)c1cc(=O)c2c(O)cc(O)cc2o1,> 10,> 1,> 10
O=C(c1cc(=O)c2cc(O)ccc2o1)c1nc2ccccc2s1,> 10,> 1,> 10
O=C(c1ccccn1)c1cc(=O)c2cc(O)ccc2o1,> 10,> 1,> 10
O=C(c1ccccn1)c1cc(=O)c2c(O)cc(O)cc2o1,> 10,> 1,> 10

# Other lines, results leading:
IC50 (PKB) [µM],IC50 (RAF) [µM],IC50 (Tie2) [µM],SMILES
> 10,> 1,> 10,Cn1ccnc1C(=O)c1cc(=O)c2cc(O)ccc2o1
9.4,> 1,> 10,O=C(c1cc(=O)c2cc(O)ccc2o1)c1ncc(Cl)nc1Cl
